B1: UEA I: ligand (lectin) that binds to H-2 (protein, UniProt P22972 1-243, looked up)
Anti-H(O) lectin 1: SDDLSFKFKNFSQNGKDLSFQGDASVIETGVLQLNKVGNNLPDETGGIARYIAPIHIWNCNTGEVASFITSFSFFMETSANPKAATDGLTFFLAPPDSPLRRAGGYFGLFEDTKDNDSSYQTVAVEFDTIGSPVNFDDPGFPHIGIDVNRVKSINAERWNKRYGLNNVANVEIIYEASSKTLTASLTYPSDQTSISVTSIVDLKEILPEWVSVGFSGGTYIGRQATHEVLNWYFTSNLINTNS

How the values were obtained:
calicivirus diarrhea = assay: Calicivirus diarrhea in breastfed infants by milk oligosaccharide level; assay type: in vivo, human; conditions: 93 nursing children consuming milk with high amounts; Poisson regression, P=0.012
Method: Milk samples were obtained weeks 2-5 postpartum from 93 Mexican mothers; the mothers and infants were followed from birth up to 2 yr postpartum. The clinical histories of the infants were recorded prospectively, and concentrations of individual oligosaccharides in these milk samples were measured. The most common oligosaccharides in maternal milk were those that were fucosylated, comprising 73% (50%-92%) of total oligosaccharide. Of these, 2′FL, the oligosaccharide homolog of the Lewis H-2 epitope, was the most common in the milks of all mothers. The mean concentration of 2′FL in milk was 3854±108 nmol/mL (34% of total fucosylated oligosaccharides), but varied greatly among mothers according to their Lewis blood group type.
Thus, human milk containing high levels of specific oligosaccharides are associated with decreased risk of pathogen-specific diarrhea and diarrhea overall. […] Because both the oligosaccharide and the high-molecular-weight glycans that share the same glycan epitope are synthesized by the same fucosyltransferase, the relationship between the oligosaccharide expression in milk and decreased risk in the infant reflects the synthetic capacity of the mother for both the free oligosaccharide and the homologous glycan. Specific human milk oligosaccharides protect breastfed children from disease by inhibiting binding of pathogens to the child's intestinal receptors.

Campylobacter jejuni = assay: C. jejuni binding to CHO cells transfected with a human α(1,2)-fucosyltransferase gene; assay type: cell-based; conditions: CHO cells overexpressing H-2 antigen

Molecule	protection against calicivirus diarrhea (calicivirus diarrhea)	inhibition of C. jejuni binding to transfected CHO cells (Campylobacter jejuni)
CC(=O)N[C@H]1[C@H](O[C@H]2[C@@H](O)[C@@H](CO)O[C@@H](O[C@H]3[C@H](O)[C@@H](O)C(O)O[C@@H]3CO)[C@@H]2O)O[C@H](CO)[C@@H](O[C@@H]2O[C@@H](C)[C@@H](O)[C@@H](O)[C@@H]2O)[C@@H]1O[C@@H]1O[C@H](CO)[C@H](O)[C@H](O)[C@H]1O[C@@H]1O[C@@H](C)[C@@H](O)[C@@H](O)[C@@H]1O (some centres unmarked) [LDFH-I]	associated with protection	–
B1	–	inhibited

From patent US20100120701A1, “Compositions and Methods For Engineering Probiotic Yeast” (Glycosyn, Inc., priority 2008, published 2010)
